Consider nine compounds from ChEMBL document CHEMBL1201862, “PubChem BioAssay data set” (2004).

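The compound was tested at five concentrations on cells cultured in 96-well plates, with a 48-hour exposure period. Abbreviation: GI50, concentration required for 50% inhibition of growth.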 The source made the active and inactive calls. No stated cut-off is given here; in the data, active = GI50 up to about 1.1 µM and inactive = higher. A value given as a limit tells only on which side of the number the result lay.

Holding throughout (assay): inhibition of tumour cell growth, NCI panel, 48 h
The test system of assay [1] is OVCAR-3.
Assay [2] relates to MDA-MB-231.
In assay [3] the test system is COLO 205.
In assay [4] the test system is UACC-62.
Assay [5] has as its system RPMI-8226.
Assay [6] concerns TK-10.
Assay [7] deals with DU-145.
The subject of assay [8] is Hs-578T.
For assay [9], the system named is KM12.
Assay [10] concerns UO-31.
For assay [11], the system named is HL-60.
Assay [12] has as its system HOP-92.
The subject of assay [13] is IGROV-1.
The subject of assay [14] is A498.
The test system of assay [15] is SR.
Assay [16] concerns SNB-75.
The subject of assay [17] is HCT-15.
In assay [18] the test system is K562.
Assay [19] concerns ACHN.
Assay [20] deals with NCI-H226.

Regarding `CN(C)CCCN=C(N)N`, the GI50 in assay [1], in [2], in assay [3], in assay [4], in [5] and in assay [6] was > 100 µM (inactive) throughout. Also, the GI50 was > 100 µM (inactive) in [7]; > 100 µM (inactive) in assay [8]; > 100 µM (inactive) in [9]; > 100 µM (inactive) in assay [10]; 85.3 µM (inactive) in [11]; > 100 µM (inactive) in assay [12]. Besides, the GI50 in assay [13] is > 100 µM (inactive); in [14] it was > 100 µM (inactive); in assay [15], > 100 µM (inactive); in [16], > 100 µM (inactive); in [17], > 100 µM; in assay [18], > 100 µM (inactive). Moreover, the GI50 in [19] and in [20] was > 100 µM (inactive) each time.
For `COc1ccc(C2=CC(C(C)=C(C(N)=O)C(N)=O)C=C(c3ccc(Br)cc3)C2)c(OC)c1` (stereo not given), the GI50 in assay [1], in [2], in assay [3], in [4], in assay [5] and in assay [6] was > 100 µM (inactive) each time. Moreover, the GI50 in assay [7] was > 100 µM (inactive); in assay [8] it was 63.1 µM (inactive); in assay [9], > 100 µM (inactive); in assay [10], 39.9 µM (inactive); in [11], > 100 µM (inactive); in assay [12], 31.8 µM (inactive). In addition, the GI50 was 94.6 µM (inactive) in assay [13]; > 100 µM (inactive) in assay [14]; > 100 µM (inactive) in assay [15]; 66.1 µM (inactive) in [16]; > 100 µM in assay [17]; > 100 µM (inactive) in [18]. Besides, the GI50 in [19] and in assay [20] was > 100 µM (inactive) in each case.
Take `C[C@@H]1C[C@H]2OC(=O)[C@@]3(C)CCC[C@@](C)([C@@H]23)[C@@]1(O)CCc1ccoc1`: the GI50 is > 100 µM (inactive) in [1]; > 100 µM (inactive) in assay [2]; > 100 µM (inactive) in assay [3]; > 62.4 µM (inactive) in assay [4]; 45.1 µM (inactive) in assay [5]; > 100 µM (inactive) in assay [6]. The GI50 is > 100 µM (inactive) in assay [7]; > 100 µM (inactive) in [8]; > 100 µM (inactive) in [9]; > 59.3 µM (inactive) in [10]; 29.6 µM (inactive) in assay [11]; > 100 µM (inactive) in assay [12]. For the same compound, the GI50 in assay [13] was > 100 µM (inactive); in assay [14], > 100 µM (inactive); in [15], 44.5 µM (inactive); in [16], > 100 µM (inactive); in assay [17] it was 79.3 µM; in [18] it was 42.2 µM (inactive). Further, the GI50 was > 100 µM (inactive) in assay [19] and > 61.2 µM (inactive) in assay [20].
For the compound `CC(=O)NC1CCC(NC(=O)OC(C)(C)C)C(NC(=O)OC(C)(C)C)C1` (stereo not given), the GI50 in assay [1], in [2], in assay [3], in [4], in assay [5] and in [6] was > 100 µM (inactive) in each case. For the same compound, the GI50 in [7], in assay [8], in assay [9], in assay [10], in [11] and in [12] was > 100 µM (inactive) throughout. The GI50 in assay [13] is > 100 µM (inactive); in assay [14] it was > 100 µM (inactive); in [15], > 100 µM (inactive); in assay [16] it was > 100 µM (inactive); in [17] it was > 100 µM; in assay [18] it was > 100 µM (inactive). In addition, the GI50 in [19] and in [20] was > 100 µM (inactive) each time.
In the case of `O=C(Nn1cnn2c(=O)c3ccccc3nc2c1=O)c1ccccc1`, the GI50 in assay [1], in assay [2], in assay [3], in assay [4], in assay [5] and in [6] was > 100 µM (inactive) in each case. Moreover, the GI50 in assay [7], in assay [8], in assay [9], in assay [10], in assay [11] and in [12] was > 100 µM (inactive) each time. Also, the GI50 in assay [13] is > 100 µM (inactive); in [14] it was > 100 µM (inactive); in assay [15], > 100 µM (inactive); in assay [16] it was > 100 µM (inactive); in [17], > 100 µM; in [18], > 100 µM (inactive). For the same compound, the GI50 in assay [19] and in [20] was > 100 µM (inactive) each time.
For `COc1ccc(S(=O)(=O)NC(CCC(=O)NC(N)=O)C(=O)NC(N)=O)cc1` (stereo not given), the GI50 in assay [1], in [2], in assay [3], in assay [4], in [5] and in assay [6] was > 100 µM (inactive) in each case. Also, the GI50 in assay [7] was > 100 µM (inactive); in assay [8] it was > 100 µM (inactive); in assay [9], > 100 µM (inactive); in assay [10], > 100 µM (inactive); in assay [11], 74.5 µM (inactive); in assay [12], > 100 µM (inactive). Moreover, the GI50 in assay [13] is > 100 µM (inactive); in assay [14] it was > 100 µM (inactive); in assay [15] it was > 100 µM (inactive); in [16] it was > 100 µM (inactive); in assay [17], > 100 µM; in assay [18], > 100 µM (inactive). Further, the GI50 in [19] and in assay [20] was > 100 µM (inactive) in each case.
As to `OC1[C@@H]2[C@@H](O)CCCN2C[C@@H](O)[C@H]1O` (stereo not given in full), the GI50 in assay [1], in assay [2], in assay [3], in assay [4], in assay [5] and in [6] was > 100 µM (inactive) in each case. In addition, the GI50 in assay [7], in assay [8], in assay [9], in [10], in assay [11] and in assay [12] was > 100 µM (inactive) each time. Besides, the GI50 was > 100 µM (inactive) in assay [13]; > 100 µM (inactive) in assay [14]; > 100 µM (inactive) in [15]; > 100 µM (inactive) in [16]; > 100 µM in assay [17]; > 100 µM (inactive) in assay [18]. The GI50 in assay [19] and in assay [20] was > 100 µM (inactive) throughout.
`BrCCC[P+](c1ccccc1)(c1ccccc1)c1ccccc1`: the GI50 was 3.44 µM (inactive) in [1]; 8.13 µM (inactive) in assay [2]; 1.61 µM (inactive) in [3]; 14 µM (inactive) in assay [4]; 0.615 µM (active) in assay [5]; 80.9 µM (inactive) in assay [6]. In addition, the GI50 was 32.7 µM (inactive) in assay [7]; 15.5 µM (inactive) in assay [8]; 5.06 µM (inactive) in assay [9]; > 100 µM (inactive) in [10]; 1.18 µM (inactive) in [11]; 8 µM (inactive) in assay [12]. Further, the GI50 in assay [13] is 5.45 µM (inactive); in assay [14] it was 49.5 µM (inactive); in assay [15] it was 3.83 µM (inactive); in assay [16] it was 12 µM (inactive); in assay [17] it was > 100 µM; in [18], 3.16 µM (inactive). The GI50 was > 100 µM (inactive) in assay [19] and > 78.7 µM (inactive) in assay [20].
In the case of `CCOC(=O)c1c(NC(=O)c2cccs2)sc2c1CCCC2`, the GI50 in assay [1] is 46.3 µM (inactive); in assay [2], 24.6 µM (inactive); in [3] it was > 100 µM (inactive); in [4], 52.1 µM (inactive); in assay [5], > 100 µM (inactive); in assay [6] it was 45.8 µM (inactive). The GI50 in assay [7] was > 80.4 µM (inactive); in assay [8] it was 27.6 µM (inactive); in assay [9] it was > 100 µM (inactive); in assay [10], > 63.1 µM (inactive); in assay [11], > 100 µM (inactive); in [12] it was 43.3 µM (inactive). The GI50 in assay [13] was 31.3 µM (inactive); in assay [14] it was 24.3 µM (inactive); in [15] it was > 80.9 µM (inactive); in assay [16] it was 5.68 µM (inactive); in [17], > 100 µM; in [18], > 100 µM (inactive). Moreover, the values for the GI50 in assay [19] and in assay [20] were > 68.1 µM (inactive) and > 38.6 µM (inactive), respectively.
